Data as given in patent publication US11071768B2, “Caspofungin compositions for inhalation” (TRILOGY THERAPEUTICS, INC., priority 2018, dated 2021).
≈ marks a conversion by molar mass, not a printed value. Where two headings read alike, the source gives them in different places.

Experiments:
All Candida spp. = details: All Candida spp., 5,346 isolates; cited from earlier work
Aspergillus terrus = details: cited from earlier work
Aspergillus fumigatus = details: cited from earlier work
Candida parapsilosis = details: 759 isolates; cited from earlier work
Candida albicans = details: 2869 isolates; cited from earlier work
Candida krusei = details: 136 isolates; cited from earlier work
Aspergillus niger = details: cited from earlier work
Aspergillus versicolor = details: 75 isolates; cited from earlier work
Candida tropicalis = details: 625 isolates; cited from earlier work
Aspergillus flavus = details: cited from earlier work
Candida glabrata = details: 747 isolates; cited from earlier work
Candida guilliermondii = details: 61 isolates; cited from earlier work
[1] = 2 mg/kg, cited from earlier work
[2] = Toxicology observations in the rat pharmacokinetic study; type: in vivo; details: male rats, nose-only inhalation or intravenous injection
Experimental: A detailed, hand-held physical examination was conducted on all animals once during the quarantine period (prior to randomization). During the treatment period, the animals were observed daily for mortality or evidence of moribundity; these checks were separated by a minimum of four hours. Daily cage-side clinical observations were conducted during exposure, and daily hand-held clinical observations were conducted before and after exposure. Observations included, but were not limited to the following: changes in the skin and fur, eyes, and mucous membranes; effects on the respiratory, circulatory, autonomic and central nervous systems; and effects on somatomotor activity and behavior pattern.
Body Weights and Body Weight Changes: Body weights were determined one day after animal receipt; at randomization; and prior to exposure on Study Day 1, 2, 3 and 7 (as applicable based on scheduled euthanization).
Plasma and Tissue Samples/Necropsy: Whole blood samples were collected from three animals per time-point at approximately 0.5, 1, 2, 4, 8, 12, 24 and 48 hours and 7 days after dose administration for plasma drug level determination. Rats were anesthetized with 70% CO2/30% air and blood was collected from the retro-orbital plexus and placed into tubes containing anticoagulant (EDTA). Blood samples were placed on ice immediately following collection and processed (i.e., centrifuged) to plasma. The samples were then stored frozen (at approximately −70° C.) until analyzed. All study animals surviving to scheduled necropsy were euthanized by an overdose of an intraperitoneal injection of sodium pentobarbital at […]. Tissue specimens (lung, liver and kidney) were collected from three animals per time point at 0.5, 2, 24 and 48 hours and 7 days after dose administration. All tissue specimens were stored frozen at approximately −70° C. until analyzed.

Aspergillus nidulans = details: cited from earlier work

Compound: CC[C@H](C)C[C@H](C)CCCCCCCCC(=O)N[C@H]1C[C@@H](O)[C@@H](NCCN)NC(=O)[C@@H]2[C@@H](O)CCN2C(=O)[C@H]([C@H](O)CCN)NC(=O)[C@H]([C@H](O)[C@@H](O)c2ccc(O)cc2)NC(=O)[C@@H]2C[C@@H](O)CN2C(=O)[C@H]([C@@H](C)O)NC1=O [caspofungin]
- MIC90 (All Candida spp.): 0.25 µg/mL (≈ 0.229 µM)
- MIC90 Average (Geometric Mean MIC) (Aspergillus terrus; 11 isolates): 0.12 µg/mL (≈ 0.11 µM)
- MIC90 Range (Aspergillus terrus; 11 isolates): 0.06 to .2 µg/mL
- MEC Average (Mode) (Aspergillus terrus; 385 isolates): 0.06 µg/mL
- MEC Range (Aspergillus terrus; 385 isolates): 0.016 to 2 µg/mL
- MIC90 Average (Geometric Mean MIC) (Aspergillus fumigatus; 56 isolates): 0.25 µg/mL (≈ 0.229 µM)
- MIC90 Range (Aspergillus fumigatus; 56 isolates): 0.12 to 4 µg/mL
- MEC Average (Mode) (Aspergillus fumigatus; 1691 isolates): 0.25 µg/mL
- MEC Range (Aspergillus fumigatus; 1691 isolates): 0.016 to 32 µg/mL
- MIC90 (Candida parapsilosis): 1 µg/mL (≈ 0.915 µM)
- MIC90 (Candida albicans): 0.06 µg/mL (≈ 0.0549 µM)
- MIC90 (Candida krusei): 0.25 µg/mL (≈ 0.229 µM)
- MIC90 Average (Geometric Mean MIC) (Aspergillus niger; 10 isolates): 0.14 µg/mL (≈ 0.128 µM)
- MIC90 Range (Aspergillus niger; 10 isolates): 0.06 to 0.5 µg/mL
- MEC Average (Mode) (Aspergillus niger; 440 isolates): 0.06 µg/mL
- MEC Range (Aspergillus niger; 440 isolates): 0.016 to 2 µg/mL
- MEC Average (Mode) (Aspergillus versicolor): 0.12 µg/mL
- MEC Range (Aspergillus versicolor): 0.032 to 2 µg/mL
- MIC90 (Candida tropicalis): 0.06 µg/mL (≈ 0.0549 µM)
- MIC90 Average (Geometric Mean MIC) (Aspergillus flavus; 13 isolates): 0.2 µg/mL (≈ 0.183 µM)
- MIC90 Range (Aspergillus flavus; 13 isolates): 0.06 to 2 µg/mL
- MEC Average (Mode) (Aspergillus flavus; 432 isolates): 0.06 µg/mL
- MEC Range (Aspergillus flavus; 432 isolates): 0.016 to 32 µg/mL
- MIC90 (Candida glabrata): 0.06 µg/mL (≈ 0.0549 µM)
- MIC90 (Candida guilliermondii): 1 µg/mL (≈ 0.915 µM)
- Kidney concentration, radiolabeled compound (Stone 2004) ([1]; 0.5 h): 9.15 µg/g
- Kidney concentration, radiolabeled compound (Stone 2004) ([1]; 2 h): 10.60 µg/g
- Kidney concentration, radiolabeled compound (Stone 2004) ([1]; 24 h): 11.40 µg/g
- Clinical signs of toxicity [2]: no clinical signs of toxicity
- Effects on body weight [2]: no effects on body weight
- Gross necropsy findings [2]: no gross necropsy findings
- Mortality [2]: no test-article related mortality
- MIC90 Average (Geometric Mean MIC) (Aspergillus nidulans; 13 isolates): 0.44 µg/mL (≈ 0.402 µM)
- MIC90 Range (Aspergillus nidulans; 13 isolates): 0.2 to 4 µg/mL
- MEC Average (Mode) (Aspergillus nidulans; 192 isolates): 0.12 µg/mL
- MEC Range (Aspergillus nidulans; 192 isolates): 0.032 to 16 µg/mL
